Results on 2 compounds are retold here after US20240091267A1, “PRE-TREATMENT OF MSC WITH PPARB/DELTA AGONIST FOR TREATMENT OF ISCHEMIA-REPERFUSION INJURY” (Universite de Montpellier, priority 2020, published 2024).

Each structure is given as a SMILES string.

The subject of one test is H9c2 cardiomyocytes. Nature of the test: Transwell co-culture of MSC with H9c2 exposed to H2O2, specific DNA fragmentation in H9c2. The test is classed as cell-based, rattus norvegicus. To be noted: vs naive MSC. Here is the method: FIG. 7: Increased anti-apoptotic effects of PPARβ/δ-primed MSC on cardiomyocytes. (A) After 24 hours of MSC pharmacological preconditioning using PPARβ/δ agonist, cells were co-cultured using transwells (upper chamber) with H9c2 (lower chamber). Both cultures were exposed to 4 hours of 350 μM of H2O2 in minimal medium (serum deprivation). At the end of the protocol, specific DNA fragmentation was quantified in H9c2 cells and values were compared with those obtained for co-cultures with naive MSC or MSC pre-treated with PPARβ/δ antagonists (GSK0660 or GSK03787) and exposed to 350 H2O2μM (B, C, D) Scatter dot plot and bars were presented for specific DNA fragmentation quantified in H9c2 at the end of the protocols. Data (mean±SD for each group of treatment) were normalized by values obtained with naive MSC/H2O2 and compared using Kruskal-Wallis (Dunn's post hoc test). (B): data were obtained using the condition 1 protocol. (C): the condition 2 protocol P was followed and p value was noted **** for p<0.0001 (MSC, n=16 independent cultures vs MSC/H2O2, n=18). For the data obtained with condition 3 protocol (D), p value was noted * for p=0.0436 (MSC+1 μM GSK0660/H2O2, n=6 vs MSC/H2O2, n=10).
H9c2, rattus norvegicus cardiomyocytes, were cultured in Dulbecco's modified Eagle's medium (DMEM), supplemented with 10% fetal bovine serum (FBS), 100 Units/mL penicillin, and 100 μg/mL streptomycin. To induce apoptosis, H9c2 were cultured in a minimal medium (without FBS) containing 350 μM of H2O2 during 4 hours. In order to evaluate the effect of MSCs on cardiomyocytes, a co-culture assay was designed using the transwell system to avoid cell-cell contact. 15,000 cardiomyocytes (lower part) were plated per well of a 12-well dish with or 15,000 MSC (upper part) in presence of 350 OA of H2O2. Two different protocols of co-culture were performed. In protocol 1, H9c2 and co-cultured MSC were exposed to H2O2(with serum deprivation). In protocol 2, H9c2 were exposed to H2O2 in minimal medium during 4 hours and after a wash, cells were co-cultured in complete medium with MSC. In protocol 3, H9c2 were cultured in presence of H2O2 during 4 hours in regular medium deprived in serum, which was continued for an extra 1 hour. Then the co-culture of H9c2 with MSC was performed in complete medium for 1 hour. At the end of all protocols, H9c2 were recovered for apoptosis and RT-qPCR analysis.
DNA fragmentation was quantified in vitro on cell lysates with an enzyme-linked immunosorbent assay kit (Cell Death ELISA; Roche Diagnostics) designed to measure of histone-complexed DNA fragments (mono- and oligonucleosomes) out of the cytoplasm of cells after the induction of apoptosis.
To determine the role of PPARβ/δ on MSC-induced protective effect on cardiomyocytes we designed and developed three protocols in order to mimic the stress received by MSC when transplanted into infarcted tissues. The first protocol consisted in co-culturing naive or primed MSC with H9c2 exposed to 350 μM of H2O2 for 4 hours using transwell. The second protocol consisted in exposing […] μM of H2O2 for 4 hours before to co-culture them with naive or primed MSC in a complete medium. The third protocol consisted in exposing H9c2 to 350 μM of H2O2 for 4 hours followed by serum deprivation for 1 hour before to co-culture them with naive or primed MSC in a complete medium (FIG. 7A).

The next test deals with MSC. Nature of the test: RT-qPCR relative gene expression in untreated or preconditioned MSC. The test is classed as cell-based, mouse. The conditions noted are these: for hgf transcripts / pdgf transcripts / vegf-α transcripts: then H2O2 4 h, vs untreated MSC/H2O2; for bcl2 gene expression level: then H2O2, vs H2O2-treated MSC. Here is the method: FIG. 8: (A) 48 hours after the seeding step in complete medium, MSC were subjected to H2O2-induced oxidative stress during 4 hours in minimal medium with serum deprivation. Pharmacological preconditioning of MSC using PPARβ/δ agonist or antagonist was performed 24 hours before oxidative stress exposure. At the end of the protocol, relative gene expression was analyzed measuring transcript amounts by RT-qPCR. mRNA expression levels in untreated or preconditioned MSC exposed to an oxidative stress were assessed by RT-qPCR for (B) vegf: data (mean±SEM) were compared using ANOVA and the Tukey's post hoc for multiple comparisons (normality test passed). […] P values were ns versus H2O2, n=7 for control n=8, GW0742 0.1 μM n=7, GW0742 1 μM n=9, GSK0660 0.1 μM n=6 and GSK0660 1 μM n=9; and (D) for pdgf: data (mean±SEM) were compared using ANOVA and the Tukey's post hoc for multiple comparisons (normality test passed). […] For statistical analysis comparisons were made to the untreated MSC/H2O2 group.
MSCs were pre-incubated for 24 hours with either PPARβ/δ antagonists GSK3787 (0.1 and 1 μM), PPARβ/δ inverse agonist GSK0660 (0.1 and 1 μM) or PPARβ/δ agonist GW0742 (0.1, 1 and 5 μM) before to be washed with PBS and used in co-cultures experiments or injected in the myocardium. When indicated, MSCs were labeled with the fluorescent cell-tracer CM-Dil (Molecular Probes). MSC were collected and suspended in 5 mL PBS containing CM-Dil (10^7 cells/10 μg) prior to be incubated at 37° C. for 5 minutes followed by 15 minutes at 4° C., in the dark. Labeled MSCs were washed 2 times in PBS, resuspended in PBS and maintained at 4° C. prior to be injected in the myocardium.
Isolation of total RNA for each sample was performed using the RNeasy Mini Kit (Qiagen, Courtaboeuf). The quantity and quality of the RNA extracted were defined by using a NanoDrop ND-1000 spectrophotometer (NanoDrop ND, Thermo Fisher Scientific). Then, using the SensiFAST cDNA synthesis kit (Bioline), cDNA was synthesized by reverse transcribing 500 ng RNA into cDNA. Using the SensiFAST™ SYBR (Bioline) and a LightCycler® 480 Detection system Quantitative following manufacturer's recommendations, PCR were performed. Primers specific for angpl4, pdk4, bcl2, hgf, pdgf, nrf2 were designed using the Primer3 software. Data were normalized to the housekeeping gene ribosomal protein S9 (RPS9) and the values were expressed as relative mRNA level of specific gene expression as calculated using the 2^−ΔCt method.
(In qPCR the cycle at which signal appears reflects the starting amount.)

Where [1] appears, read: protocol 1: MSC pretreated 24 h with 1 μM, co-cultured with H9c2 under 350 μM H2O2 4 h.
Setting [2] is: protocol 2: H9c2 exposed to 350 μM H2O2 4 h, then co-culture in complete medium with MSC pretreated with 1 μM.
Setting [3] is: protocol 3: H9c2 350 μM H2O2 4 h, serum deprivation 1 h, then co-culture in complete medium with MSC pretreated with 1 μM.
The mark [4] stands for this setting: MSC pretreated 24 h with 0.1 μM.
Setting [5] is: pretreatment of cultured MSC (data not shown).

As to `COC(=O)c1sccc1S(=O)(=O)Nc1ccc(Nc2ccccc2)cc1OC` [GSK0660], in the test on H9c2 cardiomyocytes (setting [1]), the “Specific DNA fragmentation in H9c2 (anti-apoptotic effect of MSC)” value (from here on “Specific DNA fragmentation in H9c2”) was “lose their capacity to protect cardiomyocytes from apoptosis”. Further, the “Specific DNA fragmentation in H9c2” value with H9c2 cardiomyocytes (setting [2]) was “did not change MSC protective properties”. For the same compound, the “Specific DNA fragmentation in H9c2” value in the test with H9c2 cardiomyocytes (setting [3]) was “lose their capacity to protect cardiomyocytes from apoptosis”. Also, in the test on MSC (setting [4]), the hgf transcripts entry was “A similar tendency was observed”, the pdgf transcripts entry was “A similar tendency was observed” and the vegf-α transcripts entry was “significantly decreased”. In addition, in the test on MSC (MSC pretreated 24 h with 1 μM), the hgf transcripts entry is on record as “A similar tendency was observed”, the pdgf transcripts entry is reported as “A similar tendency was observed”, the vegf-α transcripts entry is “significantly decreased” and the “bcl2 gene expression level” value was “significantly reduced bcl2 gene expression level”.

Consider `Cc1cc(SCc2sc(-c3ccc(C(F)(F)F)c(F)c3)nc2C)ccc1OCC(=O)O` [GW0742], for which the “Specific DNA fragmentation in H9c2” value in the test with H9c2 cardiomyocytes (protocol 1: MSC pretreated 24 h with 0.1 μM, co-cultured with H9c2 under 350 μM H2O2 4 h) is listed as “exhibited a higher anti-apoptotic effect”; in the test on H9c2 cardiomyocytes (setting [1]), “exhibited a higher anti-apoptotic effect”; in the test with H9c2 cardiomyocytes (setting [2]), “induced a significant protective effect”; in the test on H9c2 cardiomyocytes (setting [3]), “induced a significant protective effect”. The hgf transcripts result in the test with MSC (setting [4]) and in the test with MSC (MSC pretreated 24 h with 1 μM) was “did not modify” throughout. Besides, the vegf-α transcripts entry in the test with MSC (setting [4]) and in the test with MSC (MSC pretreated 24 h with 1 μM) was “did not modify” in each case. In addition, the “bcl2 gene expression level” value in the test on MSC (setting [4]) is on record as “significant increase in bcl2 gene expression level”. For the same compound, the pdgf transcripts result in the test on MSC (MSC pretreated 24 h with 1 μM) is recorded as “significantly increased the expression of pdgf”. For the same compound, the “angpl4 target gene expression level” value in the test on MSC (setting [5]) is reported as “increased expression levels”. Moreover, the “pdk4 target gene expression level” value with MSC (setting [5]) is “increased expression levels”.
